We go through 11 molecules from ChEMBL document CHEMBL1201862, “PubChem BioAssay data set” (2004).

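Assay format: 96-well plates, 48-hour exposure. At the GI50, growth is halved.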 The source made the active and inactive calls. Rule as the data show it: active = GI50 up to about 1.1 µM and inactive = higher.

Among the test systems are NCI-H23; BT-549; NCI-H460; CAKI-1; SK-OV-3; T47D; PC-3; HCT-116; UACC-62; TK-10; SW-620; SK-MEL-5; 786-0; RPMI-8226; SNB-75; EKVX; HOP-92; MDA-MB-435; OVCAR-4; KM-20L2.
Experiment in all cases: inhibition of tumour cell growth, NCI panel, 48 h

In the case of `CC1=CCC[C@H]2[C@](C)(CC3=CC(=O)C(SCC(C)C)=CC3=O)[C@@H](C)CC[C@]12C`, the GI50 was 8.99 µM (inactive) in the test with NCI-H23; 17.6 µM (inactive) in the test with BT-549; 14.6 µM (inactive) with NCI-H460; 11.3 µM (inactive) with CAKI-1; 19.5 µM (inactive) with SK-OV-3; 2.25 µM (inactive) in the test on T47D. Also, the GI50 is 15 µM (inactive) in the test on PC-3; 12 µM (inactive) in the test on HCT-116; 14.3 µM (inactive) in the test with UACC-62; 16.7 µM (inactive) in the test with TK-10; 17.3 µM (inactive) with SW-620; 12.8 µM (inactive) with SK-MEL-5. Also, the GI50 in the test on 786-0 is 14 µM (inactive); in the test with RPMI-8226 it was 3.8 µM (inactive); in the test on SNB-75 it was 10.9 µM (inactive); in the test on EKVX it was 16.7 µM (inactive); with HOP-92, 4.84 µM (inactive); in the test on MDA-MB-435 it was 15.7 µM (inactive). In addition, in the test on OVCAR-4, the GI50 was 15.3 µM (inactive).
With `COc1cc2c(cc1-c1coc3cc(OCC=C(C)C)ccc3c1=O)OCO2`, the GI50 in the test on NCI-H23 was 24.4 µM (inactive); with BT-549, 16.8 µM (inactive); with NCI-H460, 19.1 µM (inactive); in the test on CAKI-1 it was 19.8 µM (inactive); in the test on SK-OV-3, 41.5 µM (inactive); in the test on T47D, 17.7 µM (inactive). Moreover, the GI50 with PC-3 was 42.8 µM (inactive); with HCT-116, 17.2 µM (inactive); with UACC-62 it was 25.6 µM (inactive); in the test on TK-10 it was 48.4 µM (inactive); in the test on SW-620, 25.5 µM (inactive); in the test on SK-MEL-5, 16.8 µM (inactive). The GI50 is 19.9 µM (inactive) in the test on 786-0; 15.3 µM (inactive) with RPMI-8226; 31 µM (inactive) with SNB-75; 24.3 µM (inactive) in the test on EKVX; 37.3 µM (inactive) in the test on HOP-92; 9.25 µM (inactive) in the test on MDA-MB-435. In the test with OVCAR-4, the GI50 is 13.5 µM (inactive).
On to `COC(=O)NC(=O)NC(Cc1ccccc1)NC(=O)OCc1ccccc1` (stereo not drawn), for which the GI50 in the test with NCI-H23 is 40.3 µM (inactive); in the test with BT-549 it was 31.1 µM (inactive); with NCI-H460 it was > 100 µM (inactive); with CAKI-1, > 100 µM (inactive); with SK-OV-3 it was 18 µM (inactive); in the test on T47D, > 100 µM (inactive). The GI50 is > 100 µM (inactive) with PC-3; 39.3 µM (inactive) with HCT-116; > 100 µM (inactive) in the test with UACC-62; 45.4 µM (inactive) with TK-10; > 100 µM (inactive) in the test on SW-620; > 100 µM (inactive) in the test on SK-MEL-5. For the same molecule, the GI50 with 786-0 was 37.8 µM (inactive); with RPMI-8226, > 100 µM (inactive); in the test with SNB-75, 20.2 µM (inactive); in the test with EKVX, > 100 µM (inactive); in the test with HOP-92, 18.1 µM (inactive); in the test with MDA-MB-435 it was > 100 µM (inactive). Also, in the test with OVCAR-4, the GI50 is > 100 µM (inactive).
In the case of `CC(C)[C@H](NC(=O)[C@H](N)Cc1ccc(N(CCCl)CCCl)cc1)C(=O)O`, the GI50 in the test with NCI-H23, with BT-549, with NCI-H460, in the test on CAKI-1, in the test with SK-OV-3 and in the test with T47D was > 100 µM (inactive) throughout. Moreover, the GI50 with PC-3, with HCT-116, in the test with UACC-62, in the test with TK-10, in the test on SW-620 and in the test with SK-MEL-5 was > 100 µM (inactive) in each case. Besides, the GI50 with 786-0 is > 100 µM (inactive); with RPMI-8226 it was > 100 µM (inactive); in the test on SNB-75 it was > 100 µM (inactive); with EKVX it was > 100 µM (inactive); with HOP-92 it was 9.82 µM (inactive); in the test with MDA-MB-435, > 100 µM (inactive). Besides, the GI50 in the test on OVCAR-4 is > 100 µM (inactive).
For `O=[N+]([O-])/C=C/c1cc2ccccc2[nH]1`, the GI50 in the test on NCI-H23 is 13.1 µM (inactive); in the test on BT-549 it was 15.6 µM (inactive); with NCI-H460, 14.6 µM (inactive); in the test with CAKI-1, 17.4 µM (inactive); in the test with SK-OV-3 it was 16.9 µM (inactive); with T47D it was 16.2 µM (inactive). Moreover, the GI50 in the test on PC-3 was 15.2 µM (inactive); with HCT-116, 4.31 µM (inactive); in the test with UACC-62, 18.2 µM (inactive); with TK-10, 17.5 µM (inactive); in the test with SW-620 it was 8.83 µM (inactive); in the test with SK-MEL-5, 14.7 µM (inactive). Moreover, the GI50 in the test with 786-0 was 14.6 µM (inactive); in the test on RPMI-8226, 2.96 µM (inactive); in the test with SNB-75 it was 15.2 µM (inactive); with EKVX it was 29.2 µM (inactive); in the test on HOP-92 it was 19.8 µM (inactive); in the test on MDA-MB-435, 2.59 µM (inactive). For the same molecule, the GI50 in the test with OVCAR-4 is 14.1 µM (inactive).
As to `CN(C)CCn1cnc2sc3ccccc3c21`, the GI50 with NCI-H23 is > 100 µM (inactive); in the test on NCI-H460, > 100 µM (inactive); with KM-20L2 it was > 100 µM (inactive); with CAKI-1 it was 95.3 µM (inactive); in the test on SK-OV-3 it was > 100 µM (inactive); in the test with HCT-116, > 100 µM (inactive). The GI50 with UACC-62 is > 100 µM (inactive); in the test on TK-10 it was > 100 µM (inactive); in the test on SW-620 it was > 100 µM (inactive); with SK-MEL-5 it was > 100 µM (inactive); in the test with 786-0, > 100 µM (inactive); in the test with SNB-75 it was 22.2 µM (inactive). Also, the GI50 in the test with EKVX and with OVCAR-4 was > 100 µM (inactive) throughout.
For `O=[N+]([O-])c1ccc(O)c(/C=N/c2nc(-c3ccccc3)cs2)c1`, the GI50 with NCI-H23 was 20.3 µM (inactive); in the test on BT-549 it was 17.1 µM (inactive); in the test with NCI-H460, 38.1 µM (inactive); in the test on CAKI-1 it was 77.6 µM (inactive); in the test with SK-OV-3, 32.5 µM (inactive); with T47D it was 24.3 µM (inactive). In addition, the GI50 is 33.3 µM (inactive) in the test on PC-3; 26.7 µM (inactive) in the test with HCT-116; 4.67 µM (inactive) in the test with UACC-62; 42.5 µM (inactive) in the test with TK-10; 37.6 µM (inactive) in the test with SW-620; 13.2 µM (inactive) in the test with SK-MEL-5. For the same molecule, the GI50 in the test with 786-0 is 34.2 µM (inactive); in the test with RPMI-8226 it was 8.95 µM (inactive); with SNB-75 it was 23 µM (inactive); with EKVX it was 31.3 µM (inactive); with HOP-92 it was 22.9 µM (inactive); in the test on MDA-MB-435, 35.5 µM (inactive). In addition, the GI50 in the test on OVCAR-4 was 58.3 µM (inactive).
In the case of `C=CCOC(=O)/C(=C\c1ccc(OC)c(OC)c1)c1ccc(OC)c(OC)c1`, the GI50 in the test with NCI-H23 is 39.2 µM (inactive); with BT-549, > 100 µM (inactive); with NCI-H460, 25.4 µM (inactive); with CAKI-1 it was 62.2 µM (inactive); in the test on SK-OV-3, > 100 µM (inactive); in the test on T47D it was 29.8 µM (inactive). For the same molecule, the GI50 in the test on PC-3 is 33.1 µM (inactive); with HCT-116, 25.2 µM (inactive); with UACC-62, 38.5 µM (inactive); with TK-10, 61.2 µM (inactive); in the test with SW-620, 54.1 µM (inactive); in the test with SK-MEL-5 it was 42.3 µM (inactive). Further, the GI50 is 71.3 µM (inactive) with 786-0; 13.4 µM (inactive) in the test on RPMI-8226; 1.66 µM (inactive) in the test on SNB-75; 88.5 µM (inactive) with EKVX; 21.8 µM (inactive) in the test on HOP-92; 56 µM (inactive) in the test on MDA-MB-435. For the same molecule, in the test on OVCAR-4, the GI50 was > 10 µM (inactive).
For `CC(C)N(CCCNc1c2ccccc2nc2cccc([N+](=O)[O-])c12)C(C)C`, the GI50 was < 0.0108 µM (active) in the test with NCI-H23; < 0.0196 µM (active) with BT-549; < 0.01 µM (active) with NCI-H460; < 0.0418 µM (active) with CAKI-1; < 0.0326 µM (active) in the test on SK-OV-3; < 0.0269 µM (active) with T47D. Besides, the GI50 with PC-3 is < 0.0203 µM (active); in the test with HCT-116, < 0.01 µM (active); in the test on UACC-62 it was 0.0358 µM (active); in the test on TK-10 it was < 0.0205 µM (active); in the test on SW-620, < 0.01 µM (active); with SK-MEL-5, < 0.01 µM (active). Moreover, the GI50 with 786-0 is < 0.0179 µM (active); in the test with RPMI-8226 it was < 0.01 µM (active); with SNB-75, < 0.044 µM (active); in the test with EKVX it was < 0.015 µM (active); in the test on HOP-92, 0.014 µM (active); in the test with MDA-MB-435, < 0.0125 µM (active). For the same molecule, the GI50 in the test on OVCAR-4 was 0.0246 µM (active).
`Nc1nc(N)c2ncn(CCOC(c3ccccc3)P(=O)(O)O)c2n1` (stereo not drawn): the GI50 with NCI-H23, with NCI-H460, with KM-20L2, with CAKI-1, with SK-OV-3 and in the test with HCT-116 was > 100 µM (inactive) throughout. Further, the GI50 in the test on UACC-62, with TK-10, in the test on SW-620, with SK-MEL-5, in the test with 786-0 and in the test with SNB-75 was > 100 µM (inactive) throughout. For the same molecule, the GI50 in the test with EKVX is > 100 µM (inactive).
Regarding `CCCC(=O)[O-].[Na+]` [SODIUM BUTYRATE], the GI50 in the test on NCI-H23 was 3970 µM (inactive); in the test on BT-549, 8040 µM (inactive); with NCI-H460 it was 2390 µM (inactive); in the test with CAKI-1, 2770 µM (inactive); in the test with SK-OV-3, 3030 µM (inactive); in the test with T47D, 2420 µM (inactive). Also, the GI50 with PC-3 is 7100 µM (inactive); in the test on HCT-116, 1390 µM (inactive); in the test with UACC-62 it was 1650 µM (inactive); in the test with TK-10, 719 µM (inactive); in the test on SW-620, 2310 µM (inactive); in the test on SK-MEL-5, 635 µM (inactive). Also, the GI50 in the test with 786-0 was 10600 µM (inactive); in the test on RPMI-8226 it was 243 µM (inactive); with SNB-75 it was 9680 µM (inactive); with EKVX it was 18700 µM (inactive); with HOP-92 it was 5680 µM (inactive); in the test on MDA-MB-435 it was 3470 µM (inactive). Further, the GI50 in the test on OVCAR-4 was 18700 µM (inactive).
